Source: PubChem BioAssay (NCI)
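Interpolation was linear, between the two tested concentrations surrounding the appropriate level; five concentrations were tested over 48 hours in 96-well plates. The concentration for 50% growth inhibition is given as GI50. TGI: total growth inhibition.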

Key:
Assay in all cases: NCI tumour cell line growth inhibition, 48 h
NCI-H460 lung = system: NCI-H460 lung
T-47D breast = system: T-47D breast
SK-OV-3 ovarian = system: SK-OV-3 ovarian
IGROV1 ovarian = system: IGROV1 ovarian
SN12C renal = system: SN12C renal
HL-60(TB) leukemia = system: HL-60(TB) leukemia
SK-MEL-2 melanoma = system: SK-MEL-2 melanoma
MDA-MB-435 = system: MDA-MB-435
SR leukemia = system: SR leukemia
HCC-2998 colon = system: HCC-2998 colon
MOLT-4 leukemia = system: MOLT-4 leukemia
UACC-257 melanoma = system: UACC-257 melanoma
NCI-H226 lung = system: NCI-H226 lung
UACC-62 melanoma = system: UACC-62 melanoma
MALME-3M melanoma = system: MALME-3M melanoma
ACHN renal = system: ACHN renal
COLO 205 colon = system: COLO 205 colon
SNB-19 CNS = system: SNB-19 CNS
EKVX NSCLC = system: EKVX NSCLC
CCRF-CEM leukemia = system: CCRF-CEM leukemia
OVCAR-4 ovarian = system: OVCAR-4 ovarian
OVCAR-8 ovarian = system: OVCAR-8 ovarian
BT-549 breast = system: BT-549 breast
786-0 renal = system: 786-0 renal
LOX IMVI melanoma = system: LOX IMVI melanoma
OVCAR-3 ovarian = system: OVCAR-3 ovarian
HOP-62 NSCLC = system: HOP-62 NSCLC
PC-3 prostate = system: PC-3 prostate
UO-31 renal = system: UO-31 renal
HOP-92 NSCLC = system: HOP-92 NSCLC
KM12 colon = system: KM12 colon
SF-268 CNS = system: SF-268 CNS
A498 renal = system: A498 renal
NCI-H522 lung = system: NCI-H522 lung
SW-620 colon = system: SW-620 colon
A549 NSCLC = system: A549 NSCLC
SF-295 CNS = system: SF-295 CNS
SNB-75 CNS = system: SNB-75 CNS
HS 578T breast = system: HS 578T breast
SK-MEL-28 melanoma = system: SK-MEL-28 melanoma
OVCAR-5 ovarian = system: OVCAR-5 ovarian
K-562 leukemia = system: K-562 leukemia
DU-145 prostate = system: DU-145 prostate
MDA-MB-231 breast = system: MDA-MB-231 breast
CAKI-1 renal = system: CAKI-1 renal
TK-10 renal = system: TK-10 renal
M14 melanoma = system: M14 melanoma
MCF7 breast = system: MCF7 breast
NCI/ADR-RES ovarian = system: NCI/ADR-RES ovarian
RPMI-8226 leukemia = system: RPMI-8226 leukemia
SF-539 CNS = system: SF-539 CNS
NCI-H23 lung = system: NCI-H23 lung
HCT-15 colon = system: HCT-15 colon
HCT-116 colon = system: HCT-116 colon
SK-MEL-5 melanoma = system: SK-MEL-5 melanoma
U251 CNS = system: U251 CNS
HT29 colon = system: HT29 colon

Structure (SMILES): COc1ccc(CC(C)=C(c2ccc(OCCN3CCCC3)cc2)c2ccc(OCCN3CCCC3)cc2)cc1
- GI50 (NCI-H460 lung): 3.15 µM
- TGI (NCI-H460 lung): 6.45 µM
- GI50 (T-47D breast): 3.13 µM
- TGI (T-47D breast): 7.61 µM
- GI50 (SK-OV-3 ovarian): 4.19 µM
- TGI (SK-OV-3 ovarian): 7.93 µM
- GI50 (IGROV1 ovarian): 3.78 µM
- TGI (IGROV1 ovarian): 7.16 µM
- GI50 (SN12C renal): 3.49 µM
- TGI (SN12C renal): 6.74 µM
- GI50 (HL-60(TB) leukemia): 4.14 µM
- TGI (HL-60(TB) leukemia): 8.53 µM
- GI50 (SK-MEL-2 melanoma): 3.68 µM
- TGI (SK-MEL-2 melanoma): 6.97 µM
- GI50 (MDA-MB-435): 0.721 µM
- TGI (MDA-MB-435): 2.57 µM
- GI50 (SR leukemia): 0.483 µM
- TGI (SR leukemia): 1.3 µM
- GI50 (HCC-2998 colon): 2.46 µM
- TGI (HCC-2998 colon): 5.38 µM
- GI50 (MOLT-4 leukemia): 2.07 µM
- TGI (MOLT-4 leukemia): 5.96 µM
- GI50 (UACC-257 melanoma): 3.95 µM
- TGI (UACC-257 melanoma): 7.59 µM
- GI50 (NCI-H226 lung): 3.2 µM
- TGI (NCI-H226 lung): 6.63 µM
- GI50 (UACC-62 melanoma): 4.02 µM
- TGI (UACC-62 melanoma): 7.4 µM
- GI50 (MALME-3M melanoma): 3.57 µM
- TGI (MALME-3M melanoma): 6.81 µM
- GI50 (ACHN renal): 3.36 µM
- TGI (ACHN renal): 6.48 µM
- GI50 (COLO 205 colon): 0.904 µM
- TGI (COLO 205 colon): 4.55 µM
- GI50 (SNB-19 CNS): 3.93 µM
- TGI (SNB-19 CNS): 7.32 µM
- GI50 (EKVX NSCLC): 3.68 µM
- TGI (EKVX NSCLC): 7.02 µM
- GI50 (CCRF-CEM leukemia): 3.97 µM
- TGI (CCRF-CEM leukemia): 11.9 µM
- GI50 (OVCAR-4 ovarian): 3.39 µM
- TGI (OVCAR-4 ovarian): 6.9 µM
- GI50 (OVCAR-8 ovarian): 3.64 µM
- TGI (OVCAR-8 ovarian): 7.29 µM
- GI50 (BT-549 breast): 3.04 µM
- TGI (BT-549 breast): 6.35 µM
- GI50 (786-0 renal): 2.78 µM
- TGI (786-0 renal): 6.05 µM
- GI50 (LOX IMVI melanoma): 1.07 µM
- TGI (LOX IMVI melanoma): 3.94 µM
- GI50 (OVCAR-3 ovarian): 2.68 µM
- TGI (OVCAR-3 ovarian): 5.59 µM
- GI50 (HOP-62 NSCLC): 3.74 µM
- TGI (HOP-62 NSCLC): 7.93 µM
- GI50 (PC-3 prostate): 2.99 µM
- TGI (PC-3 prostate): 7.25 µM
- GI50 (UO-31 renal): 2.79 µM
- TGI (UO-31 renal): 5.75 µM
- GI50 (HOP-92 NSCLC): 0.773 µM
- TGI (HOP-92 NSCLC): 3.92 µM
- GI50 (KM12 colon): 3.49 µM
- TGI (KM12 colon): 6.77 µM
- GI50 (SF-268 CNS): 3.24 µM
- TGI (SF-268 CNS): 6.7 µM
- GI50 (A498 renal): 3.01 µM
- TGI (A498 renal): 6.28 µM
- GI50 (NCI-H522 lung): 3.63 µM
- TGI (NCI-H522 lung): 7.6 µM
- GI50 (SW-620 colon): 2.23 µM
- TGI (SW-620 colon): 5.25 µM
- GI50 (A549 NSCLC): 3.1 µM
- TGI (A549 NSCLC): 7.39 µM
- GI50 (SF-295 CNS): 4 µM
- TGI (SF-295 CNS): 7.38 µM
- GI50 (SNB-75 CNS): 2.69 µM
- TGI (SNB-75 CNS): 5.74 µM
- GI50 (HS 578T breast): 2.99 µM
- TGI (HS 578T breast): 7.17 µM
- GI50 (SK-MEL-28 melanoma): 3.6 µM
- TGI (SK-MEL-28 melanoma): 6.83 µM
- GI50 (OVCAR-5 ovarian): 3.49 µM
- TGI (OVCAR-5 ovarian): 6.68 µM
- GI50 (K-562 leukemia): 0.497 µM
- TGI (K-562 leukemia): 1.28 µM
- GI50 (DU-145 prostate): 3.32 µM
- TGI (DU-145 prostate): 6.43 µM
- GI50 (MDA-MB-231 breast): 3.25 µM
- TGI (MDA-MB-231 breast): 6.44 µM
- GI50 (CAKI-1 renal): 4 µM
- TGI (CAKI-1 renal): 7.31 µM
- GI50 (TK-10 renal): 3.66 µM
- TGI (TK-10 renal): 7.28 µM
- GI50 (M14 melanoma): 0.722 µM
- TGI (M14 melanoma): 2.5 µM
- GI50 (MCF7 breast): 0.841 µM
- TGI (MCF7 breast): 3.2 µM
- GI50 (NCI/ADR-RES ovarian): 3.7 µM
- TGI (NCI/ADR-RES ovarian): 7.08 µM
- GI50 (RPMI-8226 leukemia): 2.12 µM
- TGI (RPMI-8226 leukemia): 9.37 µM
- GI50 (SF-539 CNS): 3.59 µM
- TGI (SF-539 CNS): 6.84 µM
- GI50 (NCI-H23 lung): 3.49 µM
- TGI (NCI-H23 lung): 6.76 µM
- GI50 (HCT-15 colon): 1.28 µM
- TGI (HCT-15 colon): 4.36 µM
- GI50 (HCT-116 colon): 1.76 µM
- TGI (HCT-116 colon): 5.25 µM
- GI50 (SK-MEL-5 melanoma): 3.81 µM
- TGI (SK-MEL-5 melanoma): 7.05 µM
- GI50 (U251 CNS): 1.81 µM
- TGI (U251 CNS): 5.47 µM
- GI50 (HT29 colon): 0.84 µM
- TGI (HT29 colon): 3.31 µM
